Test results: paper PMC4355085 (Cancer discovery, 2014)

Molecular target: EphA2 (Homo sapiens, UniProt P29317)
Test: cell-free kinase assay
Format: biochemical

Sequence of EphA2 (P29317 24-976): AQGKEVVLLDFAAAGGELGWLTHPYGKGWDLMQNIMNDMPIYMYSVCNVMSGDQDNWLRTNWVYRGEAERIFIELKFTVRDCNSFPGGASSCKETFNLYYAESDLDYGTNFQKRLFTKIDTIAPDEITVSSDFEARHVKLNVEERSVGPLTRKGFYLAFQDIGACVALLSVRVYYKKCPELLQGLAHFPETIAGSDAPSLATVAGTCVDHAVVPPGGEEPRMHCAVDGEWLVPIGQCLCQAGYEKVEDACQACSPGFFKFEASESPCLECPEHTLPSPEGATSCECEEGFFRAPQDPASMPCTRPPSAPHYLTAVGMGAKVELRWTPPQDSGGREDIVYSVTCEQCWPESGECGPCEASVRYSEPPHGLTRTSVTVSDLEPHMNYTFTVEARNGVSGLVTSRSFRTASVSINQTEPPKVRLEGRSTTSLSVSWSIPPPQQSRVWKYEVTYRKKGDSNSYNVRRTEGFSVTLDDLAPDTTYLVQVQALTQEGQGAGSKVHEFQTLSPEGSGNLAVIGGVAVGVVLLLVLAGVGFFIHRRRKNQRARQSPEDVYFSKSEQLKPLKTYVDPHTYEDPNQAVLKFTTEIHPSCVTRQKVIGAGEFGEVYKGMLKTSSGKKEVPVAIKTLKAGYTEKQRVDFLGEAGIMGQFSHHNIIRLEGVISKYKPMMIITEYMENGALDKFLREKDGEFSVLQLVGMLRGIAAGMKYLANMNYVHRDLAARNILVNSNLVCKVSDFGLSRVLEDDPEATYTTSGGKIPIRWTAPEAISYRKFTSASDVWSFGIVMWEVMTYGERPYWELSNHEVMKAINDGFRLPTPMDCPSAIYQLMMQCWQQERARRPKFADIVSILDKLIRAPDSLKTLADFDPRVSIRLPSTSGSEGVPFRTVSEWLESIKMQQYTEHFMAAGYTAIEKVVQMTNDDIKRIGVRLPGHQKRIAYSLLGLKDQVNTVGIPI

CCN1CCN(Cc2ccc(NC(=O)c3ccc(C)c(/C=C/c4cnc5[nH]ccc5c4OC)c3)cc2C(F)(F)F)CC1 [HG-6-64-1]
IC50: 77.1 nM
